# Results as given in article PMC9464622, “The collectin SP-A and its trimeric recombinant fragment protect alveolar epithelial cells from the cytotoxic and proinflammatory effects of human cathelicidin in vitro” (Frontiers in Immunology, 2022).
# How the values were obtained:
# A549 cells = assay: LL-37-induced IL-8 secretion (ELISA); format: cell-based, human; conditions: A-438079 10 µM, 15 min pre-treatment; LL-37 15 µM, 24 h
# Protocol: A549 cells were seeded to a density of 50,000 cells per well in a 96-well tissue culture plate for 18 h in RPMI 1640 medium supplemented with antibiotics, 2 mM L-glutamine, and 5% FBS.
# Secreted IL-8 was quantified in supernatants of A549 cells by ELISA (R&D Systems) following the supplier instructions. Briefly, anti-human IL-8 was coated on a 96-well Nunc-Immuno Plate MaxiSorp Surface (Thermo Scientific, Waltham, MA) in PBS overnight. After blocking with PBS and 10% FBS, and extensive washing, samples and standards were incubated for 2 h at room temperature. IL-8 cytokine was detected with biotinylated detection antibody and streptavidin-HRP. The colorimetric reaction was developed with tetramethylbenzidine (BD Biosciences, San Diego, CA) and was stopped with 4 M sulfuric acid. The absorbance at 450 nm was read on an ELISA reader (RT-6100 plate reader, Rayto Life and Analytical Sciences, Shenzhen, China).
# K. pneumoniae K2 [1] = assay: Bacterial killing assay, K. pneumoniae; conditions: 10^5 CFU/ml, PBS, 1 h 37°C; SP-A 0.11 µM, rfhSP-A 0.7 µM; increasing LL-37; CFU counting
# Protocol: (§2) Klebsiella pneumoniae 52145 (serotype K2:O1), nontypeable Haemophilus influenzae strain 375 (NTHi), and P. aeruginosa (PAO1) are clinical isolates, as previously described ([40]–[42]). P. aeruginosa, and K. pneumoniae K2 were grown in Luria–Bertani (LB) broth at 37°C with continuous shaking to the exponential phase. Frozen stocks of NTHi strains were thawed and then grown on chocolate agar plates during 18 h at 37°C in a humidified 5% CO2 atmosphere. Then, NTHi were grown to the exponential phase on brain heart infusion broth (BHI) supplemented with 10 µg/ml hemin and 10 µg/ml β-nicotinamide adenine dinucleotide (β-NAD) (sBHI) with continuous shaking at 37°C in a humidified 5% CO^2 atmosphere. Exponential-phase bacteria were then harvested by centrifugation at 500 g for 10 min, resuspended in PBS, and adjusted to the desired final concentration, as described in ([24]).
# (§3) The microbicidal activity of LL-37 in the presence of SP-A or rfhSP-A was evaluated by colony counts on plate assays ([24], [25]). […] Viable bacteria were enumerated by colony count and results were expressed as a percentage of relative survival in comparison to untreated bacteria.
# [2] = tested on: nontypeable Haemophilus influenzae; assay: Bacterial killing assay, NTHi; conditions: 10^5 CFU/ml, PBS + 1% TSB, 1 h 37°C; SP-A 0.025 µM, rfhSP-A 0.15 µM; increasing LL-37
# Protocol: as §2, §3
# [3] = LPS vesicle aggregation assay (turbidity, DLS); format: biochemical, Salmonella enterica serotype Minnesota; conditions: Re-LPS/BPL 50 µg/ml, 75 nM SP-A, 1.1 µM LL-37, 0.43 µM rfhSP-A, 37°C
# Protocol: Vesicles mimicking the inner membrane of Gram-negative bacteria were prepared by mixing POPE, POPG, and CL at weight ratios of 67:23:10. Alternatively, vesicles mimicking bacterial outer membrane were prepared by adding ReLPS to the POPE/POPG/CL mixture (BPL, bacterial phospholipids) at a weight ratio of 8:2, as previously reported ([25]). Multilamellar vesicles and large unilamellar vesicles of DPPC and surfactant-like vesicles composed of DPPC, POPG, and palmitic acid (PA) (at weight ratios of 23:10:1.6) were prepared as previously reported ([28], [33]–[35], [39]).
# Turbidity measurements: The effects of SP-A, rfhSP-A, and calcium on the aggregation of LPS vesicles that mimic bacterial outer membranes were studied in the absence and presence of LL-37 by measuring the change in absorbance at 400 nm in a Beckman DU-800 spectrophotometer ([28], [39]). Briefly, LPS vesicles (50 μg/ml) were added to both the sample and the reference cuvettes in 5 mM Tris-HCl and 150 mM NaCl 0.1 mM EDTA buffer, pH 7.4. After 10 min equilibration at 37°C, either human SP-A, rfhSP-A, LL-37, or combinations thereof was added to the sample cuvette, and the change in optical density at 400 nm was monitored. Next, 2.5 mM Ca^2+ was added to both the sample and reference cuvettes, and the change in absorbance was monitored again. Aggregation of surfactant phospholipid vesicles was performed in the same way. […]
# K. pneumoniae K2 [4] = assay: Transmission electron microscopy of bacteria; format: cell-based, Klebsiella pneumoniae; conditions: LL-37 55.5 µM, SP-A 0.3 µM, rfhSP-A 1.5 µM, 30 min 37°C PBS; TEM
# Protocol: The effect of LL-37, SP-A, rfhSP-A, and combinations thereof on the ultrastructure of K. pneumoniae was visualized by means of transmission electron microscopy, as described in ([25]). […] Cells were spun down and PBS medium was removed. Cell pellets were then chemically fixed with 4% paraformaldehyde and 2.5% glutaraldehyde for 4 h at 4°C and washed three times with PBS. Next, bacteria were post-fixed with 1% osmium tetroxide for 1 h. Samples were then washed thrice with bi-distilled water and dehydrated using sequential exposure to acetone concentrations ranging from 30% to 100% for 15 min at room temperature. Next, infiltration and embedding were performed using Spurr’s resin. The samples were sectioned using an ultramicrotome with a diamond knife and were mounted on copper grids. Samples were examined on a JEOL JEM 1010 electron microscope (JEOL, Tokyo, Japan).
# [5] = Circular dichroism: secondary structure with and without bacterial lipid vesicles; format: physicochemical; conditions: far-UV CD, 25°C, 5 mM Tris-HCl, 150 mM NaCl pH 7.4; 100 µg/ml LL-37, 75 µg/ml SP-A or rfhSP-A; mixture compared with sum of individual spectra
# Protocol: Circular dichroism (CD) spectra were obtained on a Jasco J-715 spectropolarimeter fitted with a 150 W xenon lamp ([38]). Quartz cells with a 0.1 cm optical path length were used, and the spectra were recorded in the far-UV region (190-260 nm) with a scanning speed of 50 nm/minute at 25°C. Four scans were accumulated and averaged for each spectrum. The acquired spectra were corrected by subtracting the appropriate blanks, subjected to noise reduction analysis, and presented as molar ellipticities (degrees cm2 dmol-1) assuming 110 Da as the average molecular mass per amino acid residue. At least three independent preparations of LL-37, SP-A, and rfhSP-A were measured. Spectra Manager Software (Jasco version 1.53) was used.
# Two types of lipid vesicles were used: vesicles mimicking the bacterial cell wall (Re-LPS/BPL at a ratio of 08:02 by weight), and vesicles of bacterial inner membrane phospholipids (BPL). The final concentrations were 100 μg/ml (22.2 μM) for LL-37, 75 μg/ml (0.11 μM) for SP-A, and 75 μg/ml (1.3 μM) for rfhSP-A, in a final volume of 200 μl of 5 mM Tris-HCl, NaCl 150 mM, pH 7.4 buffer.
# Vesicles mimicking the inner membrane of Gram-negative bacteria were prepared by mixing POPE, POPG, and CL at weight ratios of 67:23:10. […]
# [6] = tested on: alveolar epithelial cells; conditions: cited from earlier work
# Excerpt: (§1) The host appears to protect its own cells from LL-37 cytotoxicity by several mechanisms. […] In addition, the C1q globular head receptor (gC1qR, also known as p33) protects ...
# influenza A virus = conditions: cited from earlier work
# Excerpt: as §1
# P. aeruginosa = assay: Bacterial killing assay, P. aeruginosa; conditions: 10^5 CFU/ml, PBS, 1 h 37°C; SP-A 0.012 µM, rfhSP-A 0.075 µM; increasing LL-37
# Protocol: as §2, §3
# K. pneumoniae = assay: Bacterial membrane permeabilization, Sytox Green; format: cell-based, Klebsiella pneumoniae; conditions: 2.2 µM LL-37, 0.075 µM SP-A, 0.4 µM rfhSP-A, PBS pH 7.4, 37°C; three independent experiments
# Protocol: The ability of LL-37, SP-A, rfhSP-A, and combinations thereof to permeabilize the outer and cytoplasmic bacterial membranes was studied in live bacteria by quantifying the internalization of the impermeant fluorescent Sytox Green, since its fluorescence increases when binding to bacterial DNA. For the measurement of Sytox Green influx, the probe (1 μM) was added to 1 ml of bacterial suspension (2x10^7 CFU/ml) in PBS and the sample was incubated for 15 min in darkness at room temperature as described in ([25]). Then, the fluorescence of the Sytox Green/bacterial suspension mixture was monitored for 4 hours in a FLUOstar Omega microplate reader (BMG LabTechnologies, Ortenberg, Germany) at excitation and emission wavelengths of 485 and 520 nm, respectively. PBS was used as a negative control, whereas ethanol (70%) was used as a positive control. Background fluorescence was measured in non-labeled bacteria.
# human endothelial cells = conditions: cited from earlier work
# Excerpt: as §1
# [7] = cited from earlier work
# Excerpt: The host appears to protect its own cells from LL-37 cytotoxicity by several mechanisms.
Compound,"IL-8 release, A549, with P2X7 inhibitor (A549 cells)",effect on antibacterial activity of LL-37 against K. pneumoniae (K. pneumoniae K2 [1]),effect on antibacterial activity of LL-37 against NTHi [2],"LPS vesicle aggregation (scattered light), with calcium ([3]; 2.5 mM Ca2+, pH 7.4)","LPS vesicle turbidity (400 nm), no calcium ([3]; pH 7.4, before Ca2+)",effect on ultrastructure of K. pneumoniae (K. pneumoniae K2 [4]),CD spectrum / change in α-helical content [5],effect on human β-defensin 3 cytotoxicity on alveolar epithelial cells [6],"antiviral activity against influenza A virus, LL-37 with SP-A (influenza A virus)",effect on antibacterial activity of LL-37 against P. aeruginosa (P. aeruginosa),Sytox Green permeabilization of K. pneumoniae (K. pneumoniae),effect on LL-37 cytotoxicity on human endothelial cells (human endothelial cells),effect on antimicrobial activity of LL-37 [7]
"Clc1cccc(-c2nnnn2Cc2cccnc2)c1Cl [A-438079, reference compound]",decreased LL-37-induced IL-8 secretion,,,,,,,,,,,,
SP-A: Human surfactant protein A isolated from bronchoalveolar lavage fluid of patients with alveolar proteinosis,not observed in the presence of the P2X7 inhibitor,neither SP-A nor rfhSP-A modifies the antibacterial activity of LL-37,neither SP-A nor rfhSP-A modifies the antibacterial activity of LL-37,greatly increased,did not affect sample turbidity,did not cause any perturbation of the bacterial cell wall,marked decrease of negative ellipticity without any shift of the minimum at 207 nm,reduced cytotoxicity on alveolar epithelial cells,additive antiviral activity against influenza A virus,neither SP-A nor rfhSP-A modifies the antibacterial activity of LL-37,did not affect the fluorescence of the dye,,
apolipoprotein A-I: HDL apolipoprotein A-I,,,,,,,,,,,,reduces the cytotoxicity of LL-37 on human endothelial cells,reduces the antimicrobial activity of LL-37
